# Source: ChEMBL document CHEMBL1149658, “Pyridinylimidazole inhibitors of Tie2 kinase” (Bioorg Med Chem Lett, 2007)
# Experiments:
# Mus musculus [1] = assay: Reduction in bFGF-induced angiogenesis in Matrigel mouse model at 50 mg/kg, ip bid; format: functional; parameters: scale not given: the % may be the effect or the level left; conditions: route intraperitoneal
# [2] = Inhibition of P38 kinase; parameters: species or system Homo sapiens
# Angiopoietin-1 receptor = Angiopoietin-1 receptor (Homo sapiens, UniProt Q02763); assay: Inhibition of Tie2 kinase by autophosphorylation assay; format: functional
# Mus musculus [3] = assay: Reduction in bFGF-induced angiogenesis in Matrigel mouse model at 25 mg/kg, ip bid; format: functional; parameters: scale not given: the % may be the effect or the level left; conditions: route intraperitoneal
# MOPC 315 = assay: Efficacy in mouse MOPC315 cells xenografted mouse assessed as delay in tumor growth; format: functional, cell-based
# Angiopoietin-1 receptor, sequence (Q02763 whole entry): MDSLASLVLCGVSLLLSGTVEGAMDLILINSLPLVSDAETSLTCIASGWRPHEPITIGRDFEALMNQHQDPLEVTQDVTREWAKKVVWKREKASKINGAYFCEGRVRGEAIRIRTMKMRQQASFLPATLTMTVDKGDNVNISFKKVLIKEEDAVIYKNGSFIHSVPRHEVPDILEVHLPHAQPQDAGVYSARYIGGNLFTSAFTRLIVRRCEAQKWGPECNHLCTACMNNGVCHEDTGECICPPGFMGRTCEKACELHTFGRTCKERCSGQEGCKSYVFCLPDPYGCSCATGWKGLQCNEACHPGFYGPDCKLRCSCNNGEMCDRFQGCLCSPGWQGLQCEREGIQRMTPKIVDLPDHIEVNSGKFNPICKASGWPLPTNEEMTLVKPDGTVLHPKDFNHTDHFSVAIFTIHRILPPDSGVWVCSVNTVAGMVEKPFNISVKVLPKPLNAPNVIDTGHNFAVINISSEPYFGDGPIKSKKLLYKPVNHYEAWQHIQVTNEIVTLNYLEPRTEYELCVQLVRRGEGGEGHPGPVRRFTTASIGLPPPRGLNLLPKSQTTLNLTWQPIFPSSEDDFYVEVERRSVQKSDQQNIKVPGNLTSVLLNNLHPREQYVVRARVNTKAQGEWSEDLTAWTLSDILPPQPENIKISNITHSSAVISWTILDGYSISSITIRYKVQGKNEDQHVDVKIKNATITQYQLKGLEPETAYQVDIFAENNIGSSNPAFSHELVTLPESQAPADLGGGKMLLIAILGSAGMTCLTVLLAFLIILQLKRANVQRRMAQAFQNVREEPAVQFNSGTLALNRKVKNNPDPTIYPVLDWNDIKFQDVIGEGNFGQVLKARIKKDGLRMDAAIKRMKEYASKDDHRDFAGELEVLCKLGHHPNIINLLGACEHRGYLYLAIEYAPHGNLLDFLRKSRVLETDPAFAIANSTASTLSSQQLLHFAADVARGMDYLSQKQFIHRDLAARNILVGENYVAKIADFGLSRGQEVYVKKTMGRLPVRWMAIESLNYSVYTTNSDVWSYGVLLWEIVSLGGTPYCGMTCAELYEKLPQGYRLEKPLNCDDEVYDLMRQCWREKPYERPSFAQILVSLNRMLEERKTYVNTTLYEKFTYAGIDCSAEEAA
IC50 [2] [µM],IC50 (Angiopoietin-1 receptor) [µM],Structure (SMILES),Activity (Mus musculus [1]) [%],Activity (Mus musculus [3]) [%],Activity (MOPC 315)
0.3,0.3,C[S+]([O-])c1ccc(-c2nc(-c3ccc4ccccc4c3)c(-c3ccncc3)[nH]2)cc1 (stereo not given),,,
16,20,COc1ccc2cc(-c3nc(-c4ccc([S+](C)[O-])cc4)n(C)c3-c3ccncc3)ccc2c1 (stereo not given),,,
> 16,3.89,COc1ccc2cc(-c3c(-c4ccncc4)nc(-c4ccc([S+](C)[O-])cc4)n3CC(C)C)ccc2c1 (stereo not given),,,
4.57,0.339,C[S+]([O-])c1ccc(-c2nc(-c3ccc4cc(Br)ccc4c3)c(-c3ccncc3)[nH]2)cc1 (stereo not given),,,
0.741,0.219,Cc1ccc2cc(-c3nc(-c4ccc([S+](C)[O-])cc4)[nH]c3-c3ccncc3)ccc2c1 (stereo not given),,,
16.5,5.5,C[S+]([O-])c1ccc(-c2nc(-c3ccc4cc(-c5ccccc5)ccc4c3)c(-c3ccncc3)[nH]2)cc1 (stereo not given),,,

# Continued, molecule first:
Structure (SMILES),IC50 [2] [µM],IC50 (Angiopoietin-1 receptor) [µM],Activity (Mus musculus [1]) [%],Activity (Mus musculus [3]) [%],Activity (MOPC 315)
COc1ccc2cc(-c3nc(-c4ccc([S+](C)[O-])cc4)[nH]c3-c3ccncc3)ccc2c1 (stereo not given),50,0.25,70,41,Dose-dependent effect
COc1ccc2cc(-c3c(-c4ccncc4)nc(-c4ccc([S+](C)[O-])cc4)n3C)ccc2c1 (stereo not given),16,0.06,30,5,
CCCn1c(-c2ccc([S+](C)[O-])cc2)nc(-c2ccncc2)c1-c1ccc2cc(OC)ccc2c1 (stereo not given),> 16,0.437,,,
CCn1c(-c2ccc([S+](C)[O-])cc2)nc(-c2ccncc2)c1-c1ccc2cc(OC)ccc2c1 (stereo not given),> 16,5.37,,,
